Assays:
[1] = molecular target: T1, GluN1/GluN2A (Rattus norvegicus, UniProt Q00959); parameters: method as in PMID 23909910; conditions: reproduced for comparison; cited from earlier work
T1 construct: expressed in transfected cells; host or cells: Xenopus laevis oocytes (cRNA injection)

[2] = tested on: MDCK-MDR1; parameters: method as in PMID 23909910; conditions: cited from earlier work
[3] = molecular target: GluN1/GluN2C (Rattus norvegicus, UniProt Q00961); parameters: GluN2B (NM_012574.1), GluN2C (NM_012575.3), and GluN2D (NM_022797.2) were provided by; expressed in transfected cells; host or cells: Xenopus laevis oocytes (cRNA injection); conditions: reproduced for comparison; cited from earlier work
Sequence of GluN1/GluN2C (Q00961 20-1237, other chains not shown): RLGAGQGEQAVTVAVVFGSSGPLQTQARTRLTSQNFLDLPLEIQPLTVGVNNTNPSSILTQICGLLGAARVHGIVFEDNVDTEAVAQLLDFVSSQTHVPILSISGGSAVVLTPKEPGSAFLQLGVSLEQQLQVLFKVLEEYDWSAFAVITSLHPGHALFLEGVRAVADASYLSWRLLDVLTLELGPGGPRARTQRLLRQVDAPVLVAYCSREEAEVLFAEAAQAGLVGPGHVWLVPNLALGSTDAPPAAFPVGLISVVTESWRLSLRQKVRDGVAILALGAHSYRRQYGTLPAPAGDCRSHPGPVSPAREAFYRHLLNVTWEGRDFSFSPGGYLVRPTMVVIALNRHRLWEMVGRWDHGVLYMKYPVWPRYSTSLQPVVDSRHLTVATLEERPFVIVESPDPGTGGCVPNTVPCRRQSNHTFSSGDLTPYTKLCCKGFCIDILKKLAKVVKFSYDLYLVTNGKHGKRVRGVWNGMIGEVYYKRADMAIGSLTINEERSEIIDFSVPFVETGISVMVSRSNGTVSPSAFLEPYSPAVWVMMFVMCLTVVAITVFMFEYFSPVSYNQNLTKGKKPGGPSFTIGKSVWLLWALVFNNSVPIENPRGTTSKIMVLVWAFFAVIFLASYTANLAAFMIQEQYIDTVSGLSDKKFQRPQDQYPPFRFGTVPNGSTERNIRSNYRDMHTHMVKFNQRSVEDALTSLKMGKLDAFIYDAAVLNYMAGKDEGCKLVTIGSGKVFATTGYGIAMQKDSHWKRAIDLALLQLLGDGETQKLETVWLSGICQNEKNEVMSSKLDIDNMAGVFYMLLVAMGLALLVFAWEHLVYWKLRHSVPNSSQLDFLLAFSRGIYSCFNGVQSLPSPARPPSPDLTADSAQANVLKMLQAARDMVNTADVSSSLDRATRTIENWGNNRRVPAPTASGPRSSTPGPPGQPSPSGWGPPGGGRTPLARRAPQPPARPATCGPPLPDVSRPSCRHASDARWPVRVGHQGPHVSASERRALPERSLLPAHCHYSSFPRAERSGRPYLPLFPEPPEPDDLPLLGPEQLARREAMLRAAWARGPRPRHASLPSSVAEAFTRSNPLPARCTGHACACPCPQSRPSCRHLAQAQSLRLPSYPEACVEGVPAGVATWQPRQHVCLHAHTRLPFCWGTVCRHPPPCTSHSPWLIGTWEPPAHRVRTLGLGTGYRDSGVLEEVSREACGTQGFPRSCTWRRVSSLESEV

[4] = molecular target: GluN1/GluN2D (Rattus norvegicus, UniProt Q62645); parameters: GluN2B (NM_012574.1), GluN2C (NM_012575.3), and GluN2D (NM_022797.2) were provided by; expressed in transfected cells; host or cells: Xenopus laevis oocytes (cRNA injection); conditions: cited from earlier work
Sequence of GluN1/GluN2D (Q62645 28-1323, other chains not shown): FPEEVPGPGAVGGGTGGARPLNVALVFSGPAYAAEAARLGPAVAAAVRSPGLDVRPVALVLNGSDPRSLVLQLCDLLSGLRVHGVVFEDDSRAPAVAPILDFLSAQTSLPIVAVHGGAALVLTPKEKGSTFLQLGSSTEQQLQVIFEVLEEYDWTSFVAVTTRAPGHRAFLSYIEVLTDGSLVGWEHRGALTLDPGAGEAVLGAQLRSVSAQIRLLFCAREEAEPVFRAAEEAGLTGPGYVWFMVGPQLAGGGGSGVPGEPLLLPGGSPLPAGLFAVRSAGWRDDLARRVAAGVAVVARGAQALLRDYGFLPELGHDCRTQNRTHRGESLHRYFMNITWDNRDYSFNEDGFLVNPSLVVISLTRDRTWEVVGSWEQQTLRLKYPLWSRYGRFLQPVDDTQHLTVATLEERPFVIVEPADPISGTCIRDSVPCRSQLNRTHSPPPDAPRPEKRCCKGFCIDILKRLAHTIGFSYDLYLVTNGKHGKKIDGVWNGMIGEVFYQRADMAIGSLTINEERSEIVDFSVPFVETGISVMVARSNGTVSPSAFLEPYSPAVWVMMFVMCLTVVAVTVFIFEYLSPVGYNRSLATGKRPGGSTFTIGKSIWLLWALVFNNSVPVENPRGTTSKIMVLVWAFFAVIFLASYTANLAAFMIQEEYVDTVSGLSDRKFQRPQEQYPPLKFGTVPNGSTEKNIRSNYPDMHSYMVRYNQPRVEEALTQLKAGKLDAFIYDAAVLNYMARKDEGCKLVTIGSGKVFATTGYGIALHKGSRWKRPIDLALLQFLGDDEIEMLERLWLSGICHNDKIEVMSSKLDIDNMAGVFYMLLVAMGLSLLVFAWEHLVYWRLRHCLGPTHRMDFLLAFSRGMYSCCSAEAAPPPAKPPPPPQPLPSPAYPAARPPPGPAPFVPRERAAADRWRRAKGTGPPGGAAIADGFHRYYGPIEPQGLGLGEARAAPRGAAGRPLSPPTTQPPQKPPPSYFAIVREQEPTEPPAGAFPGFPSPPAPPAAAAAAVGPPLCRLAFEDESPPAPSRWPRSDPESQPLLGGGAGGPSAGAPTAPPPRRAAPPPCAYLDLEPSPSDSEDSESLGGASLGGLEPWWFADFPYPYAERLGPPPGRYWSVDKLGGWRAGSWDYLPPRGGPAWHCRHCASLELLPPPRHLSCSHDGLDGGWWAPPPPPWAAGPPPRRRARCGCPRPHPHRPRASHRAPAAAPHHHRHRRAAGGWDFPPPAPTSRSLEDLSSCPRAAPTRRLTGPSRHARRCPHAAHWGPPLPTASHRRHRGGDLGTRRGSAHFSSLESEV

[5] = molecular target: hGluN1-FA,TL/hGluN3A (Homo sapiens, UniProt Q05586+Q8TCU5, F484A/T518L); assay: Off-target, oocytes, GluN1/GluN3A; format: cell-based; conditions: 1 µM compound; 100 µM glycine
Method: (§1) Analysis of Off-target Actions
(§2) Compound (S)-(-)-2i was tested at 1 µM for actions at glycine-activated GluN1/GluN3A (human GluN1-F484A,T518L/GluN3A referred to a GluN1-FA,TL/GluN3A) and rat GluN1-4a/GluN3B in the presence of 0.5 µM CGP-78608. cRNA injection ratios for GluN1/GluN3 were 1:2. Compound (S)-(-)- 2i was also tested for actions at AMPA (rat GluA1, rat GluA2, human GluA3-L531Y), kainate (rat GluK2), nicotinic acetylcholine (rat α7 and α4β2, cRNA ratio 1:1), GABAA (rat α1β2γ2S, cRNA ratio 1:1:1), GABAC (rat ρ1), glycine (rat α1), and purinergic (human P2X) receptors expressed in Xenopus oocytes. cRNA encoding the receptor subunits was synthesized from linear template cDNA using the mMessage mMachine kit (Ambion). Oocytes were injected with 1-5 ng cRNA in a 50 nL volume and incubated in Barth's solution at 15°C for 2-5 days prior to recording. GluK2-expressing oocyte were incubated in 1 mg/ml (10 µM) concanavalin-A for 10 min prior to recording. The cDNAs encoding GABAC and glycine subunits were provided by Dr. D. Weiss (University of Texas Health Science Center at San Antonio). cDNAs encoding nicotinic acetylcholine receptor subunits were provided by Drs. […]
(§3) GABA. […] Responses in presence of test compound were expressed as a percent of control. […]

[6] = molecular target: T2, GluA1 (Rattus norvegicus, UniProt P19490); assay: Off-target, oocytes, GluA1; format: cell-based; conditions: 1 µM compound; 100 µM glutamate
T2 construct: expressed in transfected cells; host or cells: Xenopus oocytes (cRNA injection)
T2 sequence (P19490 19-907): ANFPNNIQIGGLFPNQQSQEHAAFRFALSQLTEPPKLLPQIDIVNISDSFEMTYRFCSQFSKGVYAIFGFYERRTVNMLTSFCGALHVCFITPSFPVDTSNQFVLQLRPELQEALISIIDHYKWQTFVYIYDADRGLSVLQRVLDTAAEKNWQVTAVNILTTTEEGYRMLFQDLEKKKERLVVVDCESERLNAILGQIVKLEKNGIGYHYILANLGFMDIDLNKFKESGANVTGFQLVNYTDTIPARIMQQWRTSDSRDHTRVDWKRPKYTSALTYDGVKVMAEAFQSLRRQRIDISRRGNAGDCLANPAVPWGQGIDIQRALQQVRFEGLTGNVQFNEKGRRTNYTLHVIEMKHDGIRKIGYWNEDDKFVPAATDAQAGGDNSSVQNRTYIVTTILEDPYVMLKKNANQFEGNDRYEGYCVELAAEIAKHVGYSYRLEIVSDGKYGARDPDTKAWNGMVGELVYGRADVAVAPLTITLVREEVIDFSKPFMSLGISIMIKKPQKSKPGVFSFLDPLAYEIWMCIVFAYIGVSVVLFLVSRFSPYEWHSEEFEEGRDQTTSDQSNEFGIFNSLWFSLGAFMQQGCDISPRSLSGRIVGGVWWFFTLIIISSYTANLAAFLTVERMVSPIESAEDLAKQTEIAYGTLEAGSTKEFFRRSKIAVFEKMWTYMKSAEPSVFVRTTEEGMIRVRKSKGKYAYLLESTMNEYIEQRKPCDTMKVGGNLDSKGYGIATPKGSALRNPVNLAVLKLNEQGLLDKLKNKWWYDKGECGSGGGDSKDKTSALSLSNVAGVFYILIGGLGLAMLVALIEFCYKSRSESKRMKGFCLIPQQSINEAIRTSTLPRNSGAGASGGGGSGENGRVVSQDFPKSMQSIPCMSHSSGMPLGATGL
Method: as §1, §2, §3

[7] = molecular target: T3, GluA2-R607Q (Rattus norvegicus, UniProt P19491); assay: Off-target, oocytes, GluA2; format: cell-based; conditions: 1 µM compound; 100 µM glutamate
T3 construct: expressed in transfected cells; host or cells: Xenopus oocytes (cRNA injection)
Method: as §1, §2, §3

[8] = tested on: hGluA3-L531Y; assay: Off-target, oocytes, GluA3; format: cell-based, human; conditions: 1 µM compound; 100 µM glutamate
Method: as §1, §2, §3

[9] = molecular target: T4, GluK2 (Rattus norvegicus, UniProt P42260); assay: Off-target, oocytes, GluK2; format: cell-based; conditions: 1 µM compound; 100 µM glutamate
T4 construct: expressed in transfected cells; host or cells: Xenopus oocytes (cRNA injection)
Method: as §1, §2, §3

[10] = molecular target: 42-nACh (Rattus norvegicus, UniProt P09483+P12390); assay: Off-target, oocytes, nicotinic acetylcholine 42; format: cell-based; conditions: 1 µM compound; 10 µM acetylcholine
Sequence of 42-nACh (P09483 31-630): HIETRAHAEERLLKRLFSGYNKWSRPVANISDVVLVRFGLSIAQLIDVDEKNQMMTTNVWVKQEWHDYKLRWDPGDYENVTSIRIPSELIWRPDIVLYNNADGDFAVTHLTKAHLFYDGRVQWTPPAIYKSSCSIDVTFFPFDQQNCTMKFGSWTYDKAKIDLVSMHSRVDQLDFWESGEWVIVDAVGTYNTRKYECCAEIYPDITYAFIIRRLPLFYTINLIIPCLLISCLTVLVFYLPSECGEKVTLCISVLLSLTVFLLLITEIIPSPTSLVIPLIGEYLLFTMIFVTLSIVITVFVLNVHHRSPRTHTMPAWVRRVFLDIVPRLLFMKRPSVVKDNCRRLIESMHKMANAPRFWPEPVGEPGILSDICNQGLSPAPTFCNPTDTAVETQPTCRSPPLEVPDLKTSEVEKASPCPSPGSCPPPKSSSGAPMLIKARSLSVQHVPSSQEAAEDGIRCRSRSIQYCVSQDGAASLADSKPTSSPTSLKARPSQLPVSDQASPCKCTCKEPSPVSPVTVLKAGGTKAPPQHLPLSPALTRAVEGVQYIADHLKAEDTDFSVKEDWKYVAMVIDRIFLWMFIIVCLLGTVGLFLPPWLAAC
Sequence of 42-nACh (P12390 25-500): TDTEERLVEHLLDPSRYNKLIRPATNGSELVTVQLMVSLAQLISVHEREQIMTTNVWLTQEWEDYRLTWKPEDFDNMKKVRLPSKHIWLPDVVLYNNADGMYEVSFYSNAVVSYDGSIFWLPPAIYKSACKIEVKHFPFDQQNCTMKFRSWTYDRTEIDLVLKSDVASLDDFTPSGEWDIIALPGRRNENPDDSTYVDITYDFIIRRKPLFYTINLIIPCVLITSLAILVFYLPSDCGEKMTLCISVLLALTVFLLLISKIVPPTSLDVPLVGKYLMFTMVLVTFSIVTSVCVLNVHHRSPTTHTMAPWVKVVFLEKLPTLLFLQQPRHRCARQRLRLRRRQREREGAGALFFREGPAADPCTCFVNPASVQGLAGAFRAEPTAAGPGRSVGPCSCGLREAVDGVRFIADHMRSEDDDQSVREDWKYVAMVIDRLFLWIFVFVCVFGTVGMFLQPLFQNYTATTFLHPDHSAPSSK
Method: as §1, §2, §3

[11] = molecular target: α7-nACh (Rattus norvegicus, UniProt Q05941); assay: Off-target, oocytes, nicotinic acetylcholine α7; format: cell-based; conditions: 1 µM compound; 300 µM acetylcholine
Method: as §1, §2, §3

[12] = molecular target: T5, 1b22-GABA (Rattus norvegicus, UniProt P18508+P62813+P63138); assay: Off-target, oocytes, GABAA; format: cell-based; conditions: 1 µM compound; 100 µM GABA
T5 construct: expressed in transfected cells; host or cells: Xenopus oocytes (cRNA injection, 1:1:1)
Method: as §1, §2, §3

[13] = molecular target: T6, -GABAC (Rattus norvegicus, UniProt P50572); assay: Off-target, oocytes, GABAC; format: cell-based; conditions: 1 µM compound; 100 µM GABA
T6 construct: expressed in transfected cells; host or cells: Xenopus oocytes (cRNA injection)
T6 sequence (P50572 22-480): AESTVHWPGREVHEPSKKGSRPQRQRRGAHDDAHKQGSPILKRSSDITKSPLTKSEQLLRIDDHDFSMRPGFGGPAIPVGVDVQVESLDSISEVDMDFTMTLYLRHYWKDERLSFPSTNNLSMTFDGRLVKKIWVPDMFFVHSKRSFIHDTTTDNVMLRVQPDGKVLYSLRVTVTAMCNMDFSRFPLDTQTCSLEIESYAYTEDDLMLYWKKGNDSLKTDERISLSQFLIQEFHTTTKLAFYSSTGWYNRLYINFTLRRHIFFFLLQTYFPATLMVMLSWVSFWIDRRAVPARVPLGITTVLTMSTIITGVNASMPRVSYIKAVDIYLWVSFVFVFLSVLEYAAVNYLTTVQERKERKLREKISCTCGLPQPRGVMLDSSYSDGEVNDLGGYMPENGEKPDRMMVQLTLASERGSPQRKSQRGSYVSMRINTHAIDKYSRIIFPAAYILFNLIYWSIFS
Method: as §1, §2, §3

[14] = tested on: hP2x; assay: Off-target, oocytes, purinergic receptor; format: cell-based, human; conditions: 1 µM compound; 9 µM ATP
Method: as §1, §2, §3

| % control hGluN1-FA,TL/hGluN3A [5] | % control GluA1 [6] | % control GluA2-R607Q [7] | % control GluK2 [9] | % control 42-nACh [10] | % control α7-nACh [11] | % control 1b22-GABA [12] | % control -GABAC [13] | SMILES | I 30 μM / I control GluN2A [1] | Papp ([2]; cell-membrane permeability) | P-glycoprotein (P-gp)-mediated efflux ratio (ER) [2] | I 30 μM / I control GluN2C [3] | I 30 μM / I control GluN2D ([4]; 30 μM, reproduced for comparison) | Selectivity 2A IC50 / 2D IC50 ([4]; GluN2D over GluN2A) | Selectivity 2B IC50 / 2D IC50 ([4]; GluN2D over GluN2B) | % control hGluA3-L531Y [8] | % control hP2x [14] |
| --- | --- | --- | --- | --- | --- | --- | --- | --- | --- | --- | --- | --- | --- | --- | --- | --- | --- |
|  |  |  |  |  |  |  |  | O=C(O)CCC(=O)N1N=C(c2c(-c3ccc(Cl)cc3)c3ccccc3[nH]c2=O)CC1c1ccc(Cl)cc1 (centres unmarked) [2a] | 37 ± 4.6 (2,10) % | 0.47 × 10^–6 cm/s | 55 | 3.1 ± 0.6 (2,6) % | 2.0 ± 1.0 (2,5) % | 48 fold | 50 fold |  |  |
| 95 ± 2.3% | 100 ± 2.0% | 98 ± 0.85% | 100 ± 1.0% | 91 ± 2.1% | 105 ± 13.5% | 85 ± 2.0% | 96 ± 1.2% | O=C(O)CC(F)(F)C(=O)N1N=C(c2c(-c3ccc(Cl)cc3)c3ccccc3[nH]c2=O)C[C@H]1c1ccc(Cl)cc1 [(S)-(−)-2i] |  |  |  |  |  |  |  | 105 ± 1.2% | 108 ± 0.53% |

Source: paper PMC10485906, “Development of a Dihydroquinoline–Pyrazoline GluN2C/2D-Selective Negative Allosteric Modulator of the N-Methyl-D-aspartate Receptor” (ACS Chemical Neuroscience, 2023)
